# Experimental data reported in patent US20120329761A1, “USE OF TIGECYCLINE FOR TREATMENT OF CANCER” (UNIVERSITY HEALTH NETWORK, priority 2010, published 2012).
# Assays:
# TEX cells = test: ROS generation, DCF-DA and DHE staining; type: cell-based, human; details: time-points up to 24 hours
# Description: FIG. 4. […] (A) Cells from TEX, OCI-AML2 and two primary AML patients were treated with increasing concentrations (2.5 μM and 5 μM) of tigecycline for 36 and 48 hours of tigecycline. Total proteins were extracted and analyzed by western blotting for Cox-1, Cox-2, Cox-4, grp78, XIAP, actin and tubulin. (B) TEX and AML patient cells were treated with increasing concentrations (2.5 μM and 5 μM) of tigecycline. Cox-1, Cox-2, and Cox-4 mRNA expression relative 18S was determined by quantitative RT-PCR. Data is shown as mean±SD. (C) TEX cells were treated with increasing concentrations of tigecycline and chloramphenicol (CAP) for 72 hours. Complex I, II and IV enzyme activity relative to citrate synthase activity was determined as described in materials and methods. (D) Cells from TEX, primary AML patients, and normal donors were treated with increasing concentrations of tigecycline. Mitochondrial membrane potential (Δψ) was determined by staining cells with JC-1 dye, and flow cytometry analysis (Red/Green ratio). Reactive oxygen species generation (ROS) was determined by staining with h2-DCFDA and Dihydroethidium (DHE).
# A byproduct of the mitochondrial enzyme activities of the electron transport chain is the generation of reactive oxygen species (ROS). […] Therefore, the role of tigecycline on ROS generation in leukemia cells by analyzing hydrogen peroxide ions (H2O2) using a dichlorofluorescein dye (DCF-DA), and superoxide anions using dihydroethidium (DHE) was examined.
# [1] = tested on: acute myeloid leukemia (AML); details: 13 patients treated; cited from earlier work
Compound,ROS generation (TEX cells),complete remission (number of patients) [1],partial remissions (number of patients) [1]
CC[C@H]1/C=C/C=C/C[C@@H](C)[C@H](O)[C@@](C)(O)C(=O)[C@@H](C)[C@H](O)[C@@H](C)C(=O)[C@@H](C)[C@H](O)[C@@H](C)/C=C/C(=O)O[C@@H]2[C@H](C)[C@H](CC1)O[C@]1(CC[C@H](C)[C@H](C[C@@H](C)O)O1)[C@H]2C [oligomycin],rapid increases in ROS levels,,
NC(=O)c1ncn([C@@H]2O[C@H](CO)[C@@H](O)[C@H]2O)n1 [ribavirin],,1,2
C=C(C)[C@H]1Cc2c(ccc3c2O[C@@H]2COc4cc(OC)c(OC)cc4[C@@H]2C3=O)O1 [rotenone],rapid increases in ROS levels,,
antimycin,rapid increases in ROS levels,,
